Our source for the pest or weed control values is patent US20120100990A1, “4 -AMINOPICOLINATES AND THEIR USE AS HERBICIDES” (SYNGENTA CROP PROTECTION LLC, priority 2009, published 2012).

SMILES strings stand for the structures.

Common to all, as to type: in vivo
Test [1] relates to Solanum nigrum (SOLNI). Description: Post-emergence biological efficacy, glasshouse pot test. The conditions noted are these: 312 h, 1,000 g/ha, evaluated after 13 days, 100=total damage, 0=no damage, read-out: Percentage damage caused to weed species, post-emergence, SOLNI. On the procedure: (§1) Seeds of Alopecurus myosuroides (ALOMY), Setaria faberi (SETFA), Echinochloa crus-galli (ECHCG), Solanum nigrum (SOLNI), Amaranthus retroflexus (AMARE) and Ipomea hederaceae (IPOHE) were sown in standard soil in pots. After cultivation for 8 days under controlled conditions in a glasshouse (at 24/16° C., day/night; 14 hours light; 65% humidity), the plants were sprayed with an aqueous spray solution derived from the formulation of the technical active ingredient in acetone/water (50:50) solution containing 0.5% Tween 20 (polyoxyethylene sorbitan monolaurate, CAS RN 9005-64-5) to give a final dose of 1000 or 250 g/ha of test compound. The test plants were then grown on under controlled conditions in a glasshouse (at 24/16° C., day/night; 14 hours light; 65% humidity) and watered twice daily. After 13 days the test was evaluated (100=total damage to plant; 0=no damage to plant).

Test [2] has as its system Setaria faberi (SETFA). Described as above. To be noted: 312 h, 1,000 g/ha, evaluated after 13 days, 100=total damage, 0=no damage, read-out: Percentage damage caused to weed species, post-emergence, SETFA. On the procedure: as §1
Test [3] concerns Alopecurus myosuroides (ALOMY). The test is described as above. To be noted: 312 h, 1,000 g/ha, evaluated after 13 days, 100=total damage, 0=no damage, read-out: Percentage damage caused to weed species, post-emergence, ALOMY. The protocol:
as §1

Test [4] deals with Ipomea hederaceae (IPOHE). Described as above. To be noted: Ipomoea hederacea, 312 h, 1,000 g/ha, evaluated after 13 days, 100=total damage, 0=no damage, read-out: Percentage damage caused to weed species, post-emergence, IPOHE. The protocol:
as §1

Test [5] deals with Echinochloa crus-galli (ECHCG). Described as above. The conditions noted are these: 312 h, 1,000 g/ha, evaluated after 13 days, 100=total damage, 0=no damage, read-out: Percentage damage caused to weed species, post-emergence, ECHCG. The protocol:
as §1

Test [6] has as its system Amaranthus retroflexus (AMARE). Described as above. To be noted: 312 h, 1,000 g/ha, evaluated after 13 days, 100=total damage, 0=no damage, read-out: Percentage damage caused to weed species, post-emergence, AMARE. On the procedure:
as §1

Test [7] deals with Solanum nigrum (SOLNI). Description: Pre-emergence biological efficacy, glasshouse pot test. To be noted: 312 h, 1,000 g/ha, evaluated after 13 days, 100=total damage, 0=no damage, read-out: Percentage damage caused to weed species, pre-emergence, SOLNI. The protocol:
(§2) Seeds of Alopecurus myosuroides (ALOMY), Setaria faberi (SETFA), Echinochloa crus-galli (ECHCG), Solanum nigrum (SOLNI), Amaranthus retroflexus (AMARE) and Ipomea hederaceae (IPOHE) were sown in standard soil in pots. After cultivation for one day under controlled conditions in a glasshouse (at 24/16° C., day/night; 14 hours light; 65% humidity), the plants were sprayed with an aqueous spray solution derived from the formulation of the technical active ingredient in acetone/water (50:50) solution containing 0.5% Tween 20 (polyoxyethylene sorbitan monolaurate, CAS RN 9005-64-5) to give a final dose of 1000 or 250 g/ha of test compound. The test plants were then grown under controlled conditions in the glasshouse (at 24/16° C., day/night; 14 hours light; 65% humidity) and watered twice daily. After 13 days the test was evaluated (100=total damage to plant; 0=no damage to plant).

Test [8] concerns Setaria faberi (SETFA). Described as above. The conditions noted are these: 312 h, 1,000 g/ha, evaluated after 13 days, 100=total damage, 0=no damage, read-out: Percentage damage caused to weed species, pre-emergence, SETFA. On the procedure: as §2
For test [9], the system named is Alopecurus myosuroides (ALOMY). The description is as above. To be noted: 312 h, 1,000 g/ha, evaluated after 13 days, 100=total damage, 0=no damage, read-out: Percentage damage caused to weed species, pre-emergence, ALOMY. The protocol: as §2
Test [10] relates to Ipomea hederaceae (IPOHE). The test is described as above. The conditions noted are these: Ipomoea hederacea, 312 h, 1,000 g/ha, evaluated after 13 days, 100=total damage, 0=no damage, read-out: Percentage damage caused to weed species, pre-emergence, IPOHE. The protocol: as §2
Test [11] relates to Echinochloa crus-galli (ECHCG). Described as above. To be noted: 312 h, 1,000 g/ha, evaluated after 13 days, 100=total damage, 0=no damage, read-out: Percentage damage caused to weed species, pre-emergence, ECHCG. The protocol: as §2
Test [12] relates to Amaranthus retroflexus (AMARE). The description is as above. The conditions noted are these: 312 h, 1,000 g/ha, evaluated after 13 days, 100=total damage, 0=no damage, read-out: Percentage damage caused to weed species, pre-emergence, AMARE. The protocol:
as §2

Turning to `COC(=O)c1nc(Cl)cc(NCc2ncccc2Cl)c1Br` [Compound 32-17, 3-Bromo-6-chloro-4-[(3-chloro-pyridin-2-ylmethyl)-amino]-pyridine-2-carboxylic acid methyl ester], the pest or weed control at 1000 g/ha in test [1] amounted to 90%; in test [2], 50%; in test [3], 20%; in test [4] it was 50%; in test [5] it was 20%; in test [6], 80%. The pest or weed control at 1000 g/ha in test [7] is 80%; in test [8], 0%; in [9] it was 10%; in [10] it was 80%; in test [11] it was 0%; in test [12] it was 90%.
Take `C=Cc1c(NCc2ccccc2F)cc(Cl)nc1C(=O)OC` [Compound 6-12, 6-Chloro-3-ethenyl-4-[(2-fluorophenyl-methyl)-amino]-pyridine-2-carboxylic acid methyl ester]: the pest or weed control at 1000 g/ha in test [1] came to 90%; in [2], 80%; in test [3], 20%; in [4], 70%; in [5], 20%; in test [6], 100%. The pest or weed control at 1000 g/ha in [7] came out at 100%; in [8], 40%; in test [9] it was 40%; in test [10] it was 60%; in [11], 30%; in [12] it was 100%.
On to `COC(=O)c1nc(Cl)c(Cl)c(NCc2ccccc2[N+](=O)[O-])c1C(F)(F)F` [Compound 15-444, 5,6-dichloro-4-[(2-nitrophenyl-methyl)-amino]-3-trifluoromethyl-pyridine-2-carboxylic acid methyl ester], for which the pest or weed control at 1000 g/ha in test [1] was 90%; in [2] it was 40%; in [3] it was 10%; in test [4], 50%; in test [5], 50%; in [6], 100%. In addition, the pest or weed control at 1000 g/ha was determined as 30% in [7]; 0% in test [8]; 0% in [9]; 50% in [10]; 0% in test [11]; 30% in test [12].
`COC(=O)c1nc(Cl)cc(NCC2CCCCC2)c1Cl` [Compound 67-2, 4- Cyclohexylmethyl amino-3,6-dichloro-pyridine-2-carboxylic acid methyl ester]: the pest or weed control at 1000 g/ha came out at 100% in [1]; 20% in [2]; 30% in [3]; 70% in test [4]; 20% in test [5]; 100% in [6]. In addition, the pest or weed control at 1000 g/ha in test [7] was found to be 90%; in test [8], 60%; in [9], 20%; in test [10], 80%; in test [11] it was 10%; in [12] it was 100%.
Take `C=Cc1c(NCc2ccccc2C)cc(Cl)nc1C(=O)OC` [Compound 9-12, 6-Chloro-3-ethenyl-4-[(2-methylphenyl-methyl)-amino]-pyridine-2-carboxylic acid methyl ester]: the pest or weed control at 1000 g/ha in [1] is 80%; in test [2] it was 50%; in [3], 40%; in [4] it was 40%; in [5], 50%; in test [6] it was 100%. The pest or weed control at 1000 g/ha in test [7] amounted to 100%; in [8], 0%; in [9], 10%; in test [10] it was 60%; in test [11], 10%; in test [12], 90%.
Regarding `COC(=O)c1nc(Cl)cc(NCc2cccs2)c1Cl` [Compound 75-2, 3,6-Dichloro-4-(thiophen-2-ylmethylamino)-pyridine-2-carboxylic acid methyl ester], the pest or weed control at 1000 g/ha in test [1] was 100%; in test [2] it was 80%; in test [3] it was 60%; in [4] it was 70%; in test [5] it was 70%; in test [6], 100%. Besides, the pest or weed control at 1000 g/ha is 100% in [7]; 80% in test [8]; 70% in test [9]; 90% in test [10]; 60% in test [11]; 100% in [12].
For the molecule `C=Cc1c(NCc2cccs2)cc(Cl)nc1C(=O)OC` [Compound 75-12, 6-Chloro-3-ethenyl-4-(thiophen-2-ylmethylamino)-pyridine-2-carboxylic acid methyl ester], the pest or weed control at 1000 g/ha in [1] was found to be 100%; in test [2], 80%; in [3], 50%; in test [4], 50%; in test [5], 70%; in test [6], 100%. Moreover, the pest or weed control at 1000 g/ha amounted to 100% in test [7]; 70% in test [8]; 80% in test [9]; 80% in [10]; 60% in test [11]; 100% in [12].
Regarding `COC(=O)c1nc(-c2ccc(Cl)c(OC)c2F)cc(NCc2ccc(OC)cc2OC)c1Cl` [Compound 22-164, 3-Chloro-6-(4-chloro-2-fluoro-3-methoxy-phenyl)-4-[(2,4-dimethoxyphenyl-methyl)-amino]-pyridine-2-carboxylic acid methyl ester], the pest or weed control at 1000 g/ha in test [1] came out at 90%; in test [2], 60%; in [3] it was 0%; in test [4], 70%; in test [5] it was 60%; in test [6] it was 100%. In addition, the pest or weed control at 1000 g/ha in test [7] came to 80%; in test [8] it was 10%; in test [9], 20%; in test [10], 70%; in test [11], 60%; in test [12], 80%.
